As usually defined, the IC50 is the concentration that gives 50% inhibition. Broadly, the pIC50 is −log10 of the IC50, conventionally taken in molar units.

pIC50: −log10 of the molar value. A value given as a limit tells only on which side of the number the result lay.

For 22 molecules, IC50 results are on record in US11040035B2, “3-oxo-2,6-diphenyl-2,3-dihydropyridazine-4-carboxamides” (BAYER PHARMA AKTIENGESELLSCHAFT, priority 2016, dated 2021).

For test [1], the target named is T1, AHR (Homo sapiens, UniProt P35869).
T1 sequence (P35869 11-848): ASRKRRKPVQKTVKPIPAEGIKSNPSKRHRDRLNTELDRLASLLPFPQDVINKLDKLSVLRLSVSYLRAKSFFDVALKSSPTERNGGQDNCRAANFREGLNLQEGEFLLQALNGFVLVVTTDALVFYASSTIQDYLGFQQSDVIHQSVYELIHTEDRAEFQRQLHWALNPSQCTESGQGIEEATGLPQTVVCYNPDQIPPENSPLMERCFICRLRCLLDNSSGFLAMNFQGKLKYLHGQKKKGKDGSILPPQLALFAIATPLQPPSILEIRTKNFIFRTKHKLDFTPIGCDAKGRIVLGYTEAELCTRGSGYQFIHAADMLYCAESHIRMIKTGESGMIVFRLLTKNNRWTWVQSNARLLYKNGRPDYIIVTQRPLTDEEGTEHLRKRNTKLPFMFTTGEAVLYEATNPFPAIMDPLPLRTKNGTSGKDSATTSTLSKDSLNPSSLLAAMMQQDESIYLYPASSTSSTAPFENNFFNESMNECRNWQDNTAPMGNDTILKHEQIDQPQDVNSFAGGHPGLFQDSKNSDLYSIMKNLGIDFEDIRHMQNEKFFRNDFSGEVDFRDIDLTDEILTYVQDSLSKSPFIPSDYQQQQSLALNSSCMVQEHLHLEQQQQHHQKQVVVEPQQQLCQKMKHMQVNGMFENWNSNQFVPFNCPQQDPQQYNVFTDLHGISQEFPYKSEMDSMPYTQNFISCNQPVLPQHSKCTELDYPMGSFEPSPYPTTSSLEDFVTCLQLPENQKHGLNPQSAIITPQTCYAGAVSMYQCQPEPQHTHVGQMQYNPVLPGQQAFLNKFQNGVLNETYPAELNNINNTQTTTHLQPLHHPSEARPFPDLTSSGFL
As to the kind of experiment: In vitro assay 2: agonism in human cell line (transactivation assay). The following applies: for IC50: Assay 2: AHR-luc Hum Agonism IC50 [M], no kynurenic acid, 20 hours, firefly luciferase; for pIC50: read-out: Assay 2: AHR-luc Hum Agonism IC50, no kynurenic acid, 20 hours, firefly luciferase.

Test [2] addresses T1, AHR. As to the kind of experiment: In vitro assay 1: antagonism in human cell line (transactivation assay, kynurenic acid prestimulated). The following applies: Assay 1: AHR-luc Hum Antagonism IC50 [M], 150 μM kynurenic acid, 20 hours, firefly luciferase.

Regarding `CC(O)CNC(=O)c1cc(-c2ccc(Cl)cc2)nn(-c2cccc(F)c2)c1=O` (centres unmarked) [Example 34, 6-(4-Chlorophenyl)-2-(3-fluorophenyl)-N-(2-hydroxypropyl)-3-oxo-2,3-dihydropyridazine-4-carboxamide], the IC50 was greater than 2e-05 M against AHR [1] and 1.88e-07 M against AHR [2].

Regarding `Cc1ccc(-c2cc(C(=O)NCC(O)C(F)(F)F)c(=O)n(-c3cc(F)cc(F)c3)n2)cc1` (single isomer, unassigned) [Example 53, 2-(3,5-Difluorophenyl)-6-(4-methylphenyl)-3-oxo-N-(3,3,3-trifluoro-2-hydroxypropyl)-2,3-dihydropyridazine-4-carboxamide], the values for the IC50 against AHR [1] and against AHR [2] were greater than 2e-05 M and 8.85e-09 M, respectively.

Consider `Cc1ccc(-c2cc(C(=O)NCC(C)O)c(=O)n(-c3cccc(F)c3)n2)cc1` (centres unmarked) [Example 13, 2-(3-Fluorophenyl)-N-(2-hydroxypropyl)-6-(4-methylphenyl)-3-oxo-2,3-dihydropyridazine-4-carboxamide], for which the IC50 against AHR [1] is greater than 2e-05 M; against AHR [2], 1.43e-07 M.

For the molecule `C[C@H](CO)NC(=O)c1cc(-c2ccc(Cl)cc2)nn(-c2cccc(F)c2)c1=O` [Example 24, 6-(4-Chlorophenyl)-2-(3-fluorophenyl)-N-[(2R)-1-hydroxypropan-2-yl]-3-oxo-2,3-dihydropyridazine-4-carboxamide], the values for the IC50 on AHR [1] and against AHR [2] were greater than 2e-05 M and 3.02e-07 M, respectively.

In the case of `Cc1ccc(-c2cc(C(=O)NCC(O)C(F)(F)F)c(=O)n(-c3cccc(F)c3)n2)cc1` (single isomer, unassigned; enantiomer 1) [Example 5, 2-(3-Fluorophenyl)-6-(4-methylphenyl)-3-oxo-N-(3,3,3-trifluoro-2-hydroxypropyl)-2,3-dihydropyridazine-4-carboxamide, enantiomer 1], the half-maximal inhibitory concentration (IC50) was greater than 2e-05 M on AHR [1] and 1.65e-08 M at AHR [2].

Take `O=C(NC(CO)C1CC1)c1cc(-c2ccc(Cl)cc2)nn(-c2cccc(F)c2)c1=O` (racemic) [Example 193, 6-(4-Chlorophenyl)-N-[(1RS)-1-cyclopropyl-2-hydroxyethyl]-2-(3-fluorophenyl)-3-oxo-2,3-dihydropyridazine-4-carboxamide]: the IC50 was greater than 2e-05 M against AHR [1] and 2.52e-08 M against AHR [2].

Turning to `O=C(NCC(O)C(F)F)c1cc(-c2ccc(C(F)(F)F)cc2)nn(-c2cccc(F)c2)c1=O` (racemic) [Example 261, N-[(2RS)-3,3-Difluoro-2-hydroxypropyl]-2-(3-fluorophenyl)-3-oxo-6-[4-(trifluoromethyl)phenyl]-2,3-dihydropyridazine-4-carboxamide], the IC50 was greater than 2e-05 M at AHR [1] and 2.26e-08 M against AHR [2].

In the case of `CC(NC(=O)c1cc(-c2ccc(Cl)cc2)nn(-c2cccc(F)c2)c1=O)C(O)C(F)(F)F` (racemic) [Example 216, 6-(4-Chlorophenyl)-2-(3-fluorophenyl)-3-oxo-N-[(2RS,3RS)-4,4,4-trifluoro-3-hydroxybutan-2-yl]-2,3-dihydropyridazine-4-carboxamide and 6-(4-Chlorophenyl)-2-(3-fluorophenyl)-3-oxo-N-[(2RS,3SR)-4,4,4-trifluoro-3-hydroxybutan-2-yl]-2,3-dihydropyridazine-4-carboxamide], the half-maximal inhibitory concentration (IC50) against AHR [1] is greater than 2e-05 M; on AHR [2] it was 1.16e-07 M.

In the case of `Cc1cccc(-n2nc(-c3ccc(Cl)cc3)cc(C(=O)NCC(O)C(F)(F)F)c2=O)c1` (single isomer, unassigned) [Example 367, 6-(4-chlorophenyl)-2-(3-methylphenyl)-3-oxo-N-(3,3,3-trifluoro-2-hydroxypropyl)-2,3-dihydropyridazine 4-carboxamide], the IC50 was greater than 2e-05 M at AHR [1] and 5e-07 M on AHR [2].

Consider `CC(O)C(C)NC(=O)c1cc(-c2ccc(Cl)c(Cl)c2)nn(-c2cccc(F)c2)c1=O` (centres unmarked) [Example 304, 6-(3,4-Dichlorophenyl)-2-(3-fluorophenyl)-N-(3-hydroxybutan-2-yl)-3-oxo-2,3-dihydropyridazine-4-carboxamide], for which the IC50 is greater than 2e-05 M against AHR [1] and 2.75e-07 M at AHR [2].

`Cc1cccc(-n2nc(-c3ccc(Cl)cc3)cc(C(=O)NCC(O)C(F)(F)F)c2=O)c1` (centres unmarked) [Example 366, 6-(4-chlorophenyl)-2-(3-methylphenyl)-3-oxo-N-(3,3,3-trifluoro-2-hydroxypropyl)-2,3-dihydropyridazine-4-carboxamide]: the figures for the IC50 on AHR [1] and on AHR [2] were greater than 2e-05 M and 9.7e-07 M, respectively.

In the case of `N#Cc1cccc(-n2nc(-c3ccc(Cl)cc3)cc(C(=O)NCC(O)C(F)(F)F)c2=O)c1` (single isomer, unassigned) [Example 364, 6-(4-chlorophenyl)-2-(3-cyanophenyl)-3-oxo-N-(3,3,3-trifluoro-2-hydroxypropyl)-2,3-dihydropyridazine-4-carboxamide], the pIC50 at AHR [1] is less than 4.70. In addition, the IC50 at AHR [2] amounted to 5.72e-07 M.

Regarding `O=C(NCC(O)C(F)(F)F)c1cc(-c2ccc(Cl)c(F)c2)nn(-c2cccc(F)c2)c1=O` (single isomer, unassigned) [Example 284, 6-(4-chloro-3-fluorophenyl)-2-(3-fluorophenyl)-3-oxo-N-(3,3,3-trifluoro-2-hydroxypropyl)-2,3-dihydropyridazine-4-carboxamide], the pIC50 on AHR [1] was less than 4.70. At AHR [2], the IC50 turned out to be 8.39e-07 M.

For the molecule `CCC(CC)C(O)CNC(=O)c1cc(-c2ccc(Cl)cc2)nn(-c2cccc(F)c2)c1=O` (racemic) [Example 233, 6-(4-Chlorophenyl)-N-[(2RS)-3-ethyl-2-hydroxypentyl]-2-(3-fluorophenyl)-3-oxo-2,3-dihydropyridazine-4-carboxamide], the IC50 against AHR [1] is greater than 2e-05 M; against AHR [2], 1.72e-07 M.

Consider `O=C(NCC(O)C(F)(F)F)c1cc(-c2ccc(OC(F)F)cc2)nn(-c2cccc(F)c2)c1=O` (single isomer, unassigned) [Example 122, 6-[4-(Difluoromethoxy)phenyl]-2-(3-fluorophenyl)-3-oxo-N-(3,3,3-trifluoro-2-hydroxypropyl)-2,3-dihydropyridazine-4-carboxamide], for which the negative-log IC50 (pIC50) at AHR [1] was less than 4.70. This molecule also returned an IC50 at AHR [2] of 1.38e-07 M.

On to `COCC(O)CNC(=O)c1cc(-c2ccc(Cl)cc2)nn(-c2cccc(F)c2)c1=O` (single isomer, unassigned) [Example 32, 6-(4-Chlorophenyl)-2-(3-fluorophenyl)-N-(2-hydroxy-3-methoxypropyl)-3-oxo-2,3-dihydropyridazine-4-carboxamide], for which the half-inhibitory concentration (IC50) at AHR [1] is greater than 2e-05 M; against AHR [2], 1.81e-07 M.

Consider `CC(C)(O)C(O)CNC(=O)c1cc(-c2ccc(Cl)cc2)nn(-c2cccc(F)c2)c1=O` (racemic) [Example 322, 6-(4-chlorophenyl)-N-[(2RS)-2,3-dihydroxy-3-methylbutyl]-2-(3-fluorophenyl)-3-oxo-2,3-dihydropyridazine-4-carboxamide], for which the IC50 at AHR [1] was greater than 2e-05 M; at AHR [2] it was 1.14e-07 M.

Take `N#Cc1cccc(-n2nc(-c3ccc(Cl)cc3)cc(C(=O)NCC(O)C(F)(F)F)c2=O)c1` (centres unmarked) [Example 362, 6-(4-chlorophenyl)-2-(3-cyanophenyl)-3-oxo-N-(3,3,3-trifluoro-2-hydroxypropyl)-2,3-dihydropyridazine-4-carboxamide]: the IC50 at AHR [1] is greater than 2e-05 M; at AHR [2] it was 2.31e-07 M.

`O=C(NC(CO)C1CCOC1)c1cc(-c2ccc(Cl)cc2)nn(-c2cc(Cl)cc(Cl)c2)c1=O` (centres unmarked) [Example 310, 6-(4-Chlorophenyl)-2-(3,5-dichlorophenyl)-N-[2-hydroxy-1-(tetrahydrofuran-3-yl)ethyl]-3-oxo-2,3-dihydropyridazine-4-carboxamide]: the results for the IC50 at AHR [1] and on AHR [2] were greater than 2e-05 M and 4.34e-07 M, respectively.

For `O=C(NC(CO)C1CCOC1)c1cc(-c2ccc(Cl)c(F)c2)nn(-c2cccc(F)c2)c1=O` (single isomer, unassigned) [Example 294, 6-(4-Chloro-3-fluorophenyl)-2-(3-fluorophenyl)-N-[2-hydroxy-1-(tetrahydrofuran-3-yl)ethyl]-3-oxo-2,3-dihydropyridazine-4-carboxamide], the pIC50 on AHR [1] is less than 4.70. This molecule also displayed an IC50 on AHR [2] of 6.17e-07 M.

In the case of `O=C(NCC(O)C(F)(F)F)c1cc(-c2ccc(Cl)cc2)nn(-c2cc(F)cc(F)c2)c1=O` (centres unmarked) [Example 44, 6-(4-Chlorophenyl)-2-(3,5-difluorophenyl)-3-oxo-N-(3,3,3-trifluoro-2-hydroxypropyl)-2,3-dihydropyridazine-4-carboxamide], the values for the IC50 at AHR [1] and against AHR [2] were greater than 2e-05 M and 1.99e-08 M, respectively.

Regarding `Cc1ccc(-c2cc(C(=O)NCC(O)C(C)C)c(=O)n(-c3cccc(F)c3)n2)cc1` (centres unmarked) [Example 10, 2-(3-Fluorophenyl)-N-(2-hydroxy-3-methylbutyl)-6-(4-methylphenyl)-3-oxo-2,3-dihydropyridazine-4-carboxamide], the values for the IC50 against AHR [1] and on AHR [2] were greater than 2e-05 M and 1.2e-07 M, respectively.
